Our source for the Ki values is patent US20250213735A1, “NEUROPEPTIDE Y1 RECEPTOR (NPY1R) TARGETED THERAPEUTICS AND USES THEREOF” (Radionetics Oncology, Inc., priority 2023, published 2025).

This experiment has as its target hNPY1R (Homo sapiens (Human), UniProt P25929). Put plainly: NPY1R binding assay (SK-N-MC membrane, [125I]-Peptide YY competition).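 Further: bound radioligand separated by filtration over GF/C filter plates and counted, Ki obtained by non-linear regression.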 The following applies: crude SK-N-MC membranes endogenously expressing NPY1R; [125I]-Peptide YY (human) 0.05 nM; 120 min at room temperature; read-out: hNPY1R binding Ki.

pKi: −log10 of the molar value.

hNPY1R, sequence (P25929 whole entry): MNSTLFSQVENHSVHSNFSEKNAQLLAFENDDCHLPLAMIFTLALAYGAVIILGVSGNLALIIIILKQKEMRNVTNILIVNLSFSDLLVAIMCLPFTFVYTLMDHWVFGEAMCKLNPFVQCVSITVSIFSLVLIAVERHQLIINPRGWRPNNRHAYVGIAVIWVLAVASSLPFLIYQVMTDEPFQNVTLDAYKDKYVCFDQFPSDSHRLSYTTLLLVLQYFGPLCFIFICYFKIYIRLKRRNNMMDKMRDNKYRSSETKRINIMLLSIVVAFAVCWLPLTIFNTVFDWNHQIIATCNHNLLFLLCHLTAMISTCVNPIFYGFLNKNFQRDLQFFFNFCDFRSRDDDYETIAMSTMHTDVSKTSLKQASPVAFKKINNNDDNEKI
Procedure: Crude membrane fractions are prepared from SK-N-MC cells endogenously expressing the NPY1R receptor. The cells are grown to 85-100% confluence on standard tissue culture dishes in Eagle's Minimum Essential Medium supplemented with 10% dialyzed FBS. To prepare membranes, cells are scraped and collected in 1× Dulbecco's phosphate buffered saline and then pelleted at 1000 RPM's. The cell pellet is reconstituted in membrane preparation buffer (20 mM HEPES, 6 mM MgCl2 and 1 mM EGTA, protease inhibitor tablets, pH 7.4) and placed in a cell disruption vessel at 1000 PSI for 30 minutes on ice. The pressurized contents are then released and spun down at 1000 RPMs and the supernatant is collected and further centrifuged at 15,000 RPMs to pellet the membranes. The membrane pellet is resuspended in membrane preparation buffer, snap frozen and stored at −80° C. for later use.
Assay contents are then filtered through unifilter GF/C microplates and washed with 9×400 μl of cold wash buffer (25 mM HEPES, 5 mM MgCl2, 1 mM CaCl2), 500 mM NaCl, 0.1% Tween-20, pH 7.4). Assay plates are read using a Top Count NXT and Ki values for compounds are determined using a GraphPad Prism 6 non-linear regression analysis.

What is called pKi is the Ki on a negative log10 scale, so that one unit is a factor of ten. In the case of `CCC(=O)NCCNC(=O)/N=C(/N)NCCC[C@@H](NC(=O)[C@H](c1cccc(NCCCNC(=O)[C@H](N)CCCCNC(=O)CN2CCN(CC(=O)O)CCN(CC(=O)O)CCN(CC(=O)O)CC2)c1)N1Cc2ccccc2C1)C(=O)NCc1ccc(O)cc1` [compound 25, 2,2′,2″-(10-(2-(((R)-5-amino-6-((3-((3-((1S,4R,Z)-9-amino-4-((4-hydroxybenzyl)carbamoyl)-1-(isoindolin-2-yl)-2,11,16-trioxo-3,8,10,12,15-pentaazaoctadec-9-en-1-yl)phenyl)amino)propyl)amino)-6-oxohexyl)amino)-2-oxoethyl)-1,4,7,10-tetraazacyclododecane-1,4,7-triyl)triacetic acid], the pKi was more than 8.00.

With `CCC(=O)NCCNC(=O)/N=C(/N)NCCC[C@@H](NC(=O)[C@H](c1cccc(NCCCNC(=O)CCC(=O)NCCNC(=O)CN2CCN(CC(=O)O)CCN(CC(=O)O)CCN(CC(=O)O)CC2)c1)N1Cc2ccccc2C1)C(=O)NCc1ccc(O)cc1` [compound 26, 2,2′,2″-(10-(2-((2-(4-((3-((3-((1S,4R,Z)-9-amino-4-((4-hydroxybenzyl)carbamoyl)-1-(isoindolin-2-yl)-2,11,16-trioxo-3,8,10,12,15-pentaazaoctadec-9-en-1-yl)phenyl)amino)propyl)amino)-4-oxobutanamido)ethyl)amino)-2-oxoethyl)-1,4,7,10-tetraazacyclododecane-1,4,7-triyl)triacetic acid], the pKi is more than 8.00.

Consider `CCC(=O)NCCNC(=O)/N=C(/N)NCCC[C@@H](NC(=O)[C@H](c1cccc(NCCCNC(=O)CCCCCNC(=O)NCCONC(=O)CN2CCN(CC(=O)O)CCN(CC(=O)O)CCN(CC(=O)O)CC2)c1)N1Cc2ccccc2C1)C(=O)NCc1ccc(O)cc1` [compound 27, 2,2′,2″-(10-(19-((3-((1S,4R,Z)-9-amino-4-((4-hydroxybenzyl)carbamoyl)-1-(isoindolin-2-yl)-2,11,16-trioxo-3,8,10,12,15-pentaazaoctadec-9-en-1-yl)phenyl)amino)-2,8,15-trioxo-4-oxa-3,7,9,16-tetraazanonadecyl)-1,4,7,10-tetraazacyclododecane-1,4,7-triyl)triacetic acid], for which the pKi is more than 8.00.

For the compound `CCC(=O)NCCNC(=O)/N=C(/N)NCCC[C@@H](NC(=O)[C@H](c1cccc(NCCCNC(=O)CCCCCNC(=O)CN2CCC(NC(=O)CN3CCN(CC(=O)O)CCN(CC(=O)O)CCN(CC(=O)O)CC3)CC2)c1)N1Cc2ccccc2C1)C(=O)NCc1ccc(O)cc1` [compound 28, 2,2′,2″-(10-(2-((1-(2-((6-((3-((3-((1S,4R,Z)-9-amino-4-((4-hydroxybenzyl)carbamoyl)-1-(isoindolin-2-yl)-2,11,16-trioxo-3,8,10,12,15-pentaazaoctadec-9-en-1-yl)phenyl)amino)propyl)amino)-6-oxohexyl)amino)-2-oxoethyl)piperidin-4-yl)amino)-2-oxoethyl)-1,4,7,10-tetraazacyclododecane-1,4,7-triyl)triacetic acid], the pKi was more than 8.00.

Consider `CCC(=O)NCCNC(=O)/N=C(/N)NCCC[C@@H](NC(=O)[C@H](c1cccc(NCCCNC(=O)C[C@H](O)C[C@H](O)CCNC(=O)CN2CCN(CC(=O)O)CCN(CC(=O)O)CCN(CC(=O)O)CC2)c1)N1Cc2ccccc2C1)C(=O)NCc1ccc(O)cc1` [compound 29, 2,2′,2″-(10-(2-(((3R,5R)-7-((3-((3-((1S,4R,Z)-9-amino-4-((4-hydroxybenzyl)carbamoyl)-1-(isoindolin-2-yl)-2,11,16-trioxo-3,8,10,12,15-pentaazaoctadec-9-en-1-yl)phenyl)amino)propyl)amino)-3,5-dihydroxy-7-oxoheptyl)amino)-2-oxoethyl)-1,4,7,10-tetraazacyclododecane-1,4,7-triyl)triacetic acid], for which the pKi was more than 8.00.

With `CCC(=O)NCCNC(=O)/N=C(/N)NCCC[C@@H](NC(=O)[C@H](c1cccc(NCCCNC(=O)[C@@H](CO)NC(=O)CCNC(=O)CN2CCN(CC(=O)O)CCN(CC(=O)O)CCN(CC(=O)O)CC2)c1)N1Cc2ccccc2C1)C(=O)NCc1ccc(O)cc1` [compound 30, 2,2′,2″-(10-(2-((3-(((R)-1-((3-((3-((1S,4R,Z)-9-amino-4-((4-hydroxybenzyl)carbamoyl)-1-(isoindolin-2-yl)-2,11,16-trioxo-3,8,10,12,15-pentaazaoctadec-9-en-1-yl)phenyl)amino)propyl)amino)-3-hydroxy-1-oxopropan-2-yl)amino)-3-oxopropyl)amino)-2-oxoethyl)-1,4,7,10-tetraazacyclododecane-1,4,7-triyl)triacetic acid], the negative-log Ki (pKi) was more than 8.00.

Take `CCC(=O)NCCNC(=O)/N=C(/N)NCCC[C@@H](NC(=O)[C@H](c1ccccc1)N1Cc2cccc(NCCCNC(=O)CCCCCNC(=O)CN3CCN(CC(=O)O)CCN(CC(=O)O)CCN(CC(=O)O)CC3)c2C1)C(=O)NCc1c(F)cc(O)cc1F` [compound 33, 2,2′,2″-(10-(2-((6-((3-((2-((1S,4R,Z)-9-amino-4-((2,6-difluoro-4-hydroxybenzyl)carbamoyl)-2,11,16-trioxo-1-phenyl-3,8,10,12,15-pentaazaoctadec-9-en-1-yl)isoindolin-4-yl)amino)propyl)amino)-6-oxohexyl)amino)-2-oxoethyl)-1,4,7,10-tetraazacyclododecane-1,4,7-triyl)triacetic acid]: the pKi is more than 8.00.

`CCC(=O)NCCNC(=O)/N=C(/N)NCCC[C@@H](NC(=O)[C@H](c1ccccc1)N1Cc2cccc(NCCCNc3c(NCCCCCCNC(=O)CN4CCN(CC(=O)O)CCN(CC(=O)O)CCN(CC(=O)O)CC4)c(=O)c3=O)c2C1)C(=O)NCc1c(F)cc(O)cc1F` [compound 34, 2,2′,2″-(10-(2-((6-((2-((3-((2-((1S,4R,Z)-9-amino-4-((2,6-difluoro-4-hydroxybenzyl)carbamoyl)-2,11,16-trioxo-1-phenyl-3,8,10,12,15-pentaazaoctadec-9-en-1-yl)isoindolin-4-yl)amino)propyl)amino)-3,4-dioxocyclobut-1-en-1-yl)amino)hexyl)amino)-2-oxoethyl)-1,4,7,10-tetraazacyclododecane-1,4,7-triyl)triacetic acid]: the pKi is more than 8.00.

Take `CCC(=O)NCCNC(=O)/N=C(/N)NCCC[C@@H](NC(=O)[C@H](c1ccc(OCCCN2CCN(C3CCN(C(=O)CCCCCNC(=O)CN4CCN(CC(=O)O)CCN(CC(=O)O)CCN(CC(=O)O)CC4)CC3)CC2)cc1)N1Cc2ccccc2C1)C(=O)NCc1c(F)cc(O)cc1F` [compound 35, 2,2′,2″-(10-(2-((6-(4-(4-(3-(4-((1S,4R,Z)-9-amino-4-((2,6-difluoro-4-hydroxybenzyl)carbamoyl)-1-(isoindolin-2-yl)-2,11,16-trioxo-3,8,10,12,15-pentaazaoctadec-9-en-1-yl)phenoxy)propyl)piperazin-1-yl)piperidin-1-yl)-6-oxohexyl)amino)-2-oxoethyl)-1,4,7,10-tetraazacyclododecane-1,4,7-triyl)triacetic acid]: the pKi was more than 8.00.

Regarding `CCC(=O)NCCNC(=O)/N=C(/N)NCCC[C@@H](NC(=O)[C@H](c1ccc(OCCCNC(=O)CCCCCNC(=O)CN2CCN(CC(=O)O)CCN(CC(=O)O)CCN(CC(=O)O)CC2)cc1)N1Cc2ccccc2C1)C(=O)NCc1c(F)cc(O)cc1F` [compound 36, 2,2′,2″-(10-(2-((6-((3-(4-((1S,4R,Z)-9-amino-4-((2,6-difluoro-4-hydroxybenzyl)carbamoyl)-1-(isoindolin-2-yl)-2,11,16-trioxo-3,8,10,12,15-pentaazaoctadec-9-en-1-yl)phenoxy)propyl)amino)-6-oxohexyl)amino)-2-oxoethyl)-1,4,7,10-tetraazacyclododecane-1,4,7-triyl)triacetic acid], the pKi was more than 8.00.

For `CCC(=O)NCCNC(=O)/N=C(/N)NCCC[C@@H](NC(=O)[C@H](c1ccc(OCCCNc2c(NCCCCCCNC(=O)CN3CCN(CC(=O)O)CCN(CC(=O)O)CCN(CC(=O)O)CC3)c(=O)c2=O)cc1)N1Cc2ccccc2C1)C(=O)NCc1c(F)cc(O)cc1F` [compound 37, 2,2′,2″-(10-(2-((6-((2-((3-(4-((1S,4R,Z)-9-amino-4-((2,6-difluoro-4-hydroxybenzyl)carbamoyl)-1-(isoindolin-2-yl)-2,11,16-trioxo-3,8,10,12,15-pentaazaoctadec-9-en-1-yl)phenoxy)propyl)amino)-3,4-dioxocyclobut-1-en-1-yl)amino)hexyl)amino)-2-oxoethyl)-1,4,7,10-tetraazacyclododecane-1,4,7-triyl)triacetic acid], the pKi was more than 8.00.

Take `CCC(=O)NCCNC(=O)/N=C(/N)NCCC[C@@H](NC(=O)[C@H](c1ccc(OCCCNC(=O)C[C@H]2NC(=O)[C@@H](CCCNC(=O)CN3CCN(CC(=O)O)CCN(CC(=O)O)CCN(CC(=O)O)CC3)NC2=O)cc1)N1Cc2ccccc2C1)C(=O)NCc1c(F)cc(O)cc1F` [compound 38, 2,2′,2″-(10-(2-((3-((2R,5R)-5-(2-((3-(4-((1S,4R,Z)-9-amino-4-((2,6-difluoro-4-hydroxybenzyl)carbamoyl)-1-(isoindolin-2-yl)-2,11,16-trioxo-3,8,10,12,15-pentaazaoctadec-9-en-1-yl)phenoxy)propyl)amino)-2-oxoethyl)-3,6-dioxopiperazin-2-yl)propyl)amino)-2-oxoethyl)-1,4,7,10-tetraazacyclododecane-1,4,7-triyl)triacetic acid]: the pKi was more than 8.00.

In the case of `CCC(=O)NCCNC(=O)/N=C(/N)NCCC[C@@H](NC(=O)[C@H](c1ccc(OCCCN2CCN(C(=O)CCCCCNC(=O)CN3CCN(CC(=O)O)CCN(CC(=O)O)CCN(CC(=O)O)CC3)CC2)cc1)N1Cc2ccccc2C1)C(=O)NCc1c(F)cc(O)cc1F` [compound 39, 2,2′,2″-(10-(2-((6-(4-(3-(4-((1S,4R,Z)-9-amino-4-((2,6-difluoro-4-hydroxybenzyl)carbamoyl)-1-(isoindolin-2-yl)-2,11,16-trioxo-3,8,10,12,15-pentaazaoctadec-9-en-1-yl)phenoxy)propyl)piperazin-1-yl)-6-oxohexyl)amino)-2-oxoethyl)-1,4,7,10-tetraazacyclododecane-1,4,7-triyl)triacetic acid], the pKi was more than 8.00.
